# Measurements: patent publication US11292781B2, “Pyrimidine tricyclic enone derivatives for inhibition of ROR-gamma and other uses” (REATA PHARMACEUTICALS, INC., priority 2016, dated 2022)
# Read-outs that look alike come from different tables or passages of the source.
# Assays:
# [1] = tested on: Human RAR-related Orphan Receptor Gamma (RORγ); assay: RORγ assay (GAL4-RORγ hybrid luciferase reporter, Indigo Biosciences); assay type: cell-based; conditions: GAL4-RORγ reporter cells, 23 hours
# Description: B. RORγ Assay and Cell Viability
# The RORγ assay system was purchased from Indigo Biosciences. This nuclear receptor assay utilizes a human cell line that has been engineered to express a hybrid form of the Human RAR-related Orphan Receptor Gamma (RORγ) at high levels. The N-terminal DNA binding domain (DBD) of the native RORγ receptor was substituted with the yeast GAL4-DBD to generate the GAL4-RORγ hybrid nuclear receptor. The reporter cell line is transfected with a plasmid that encodes the beetle luciferase gene under the control of the GAL4 upstream activating sequence (UAS). GAL4 binds to the UAS and increases transcription of downstream target genes. […] To assess the RORγ inverse-agonist activity of the test compounds, reporter cells were plated in white 96-well plates in triplicate and were treated with DMSO (vehicle) or test compound (concentration ranges of 0.4-200 nM or 2-1000 nM) at 37° C. with 5% CO2 in a humidified atmosphere for 23 hours. After this incubation, luciferin was added to the wells and luciferase activity was determined by measuring the luminescence signal using a BMG Pherastar microplate reader. Viability was determined using the Live Cell Multiplex Assay (Indigo Biosciences). Values from test compound samples were normalized to those from DMSO-treated samples. Data were analyzed using GraphPad Prism version 6.00 for Windows (GraphPad Software, La Jolla Calif. USA). A non-linear regression analysis with log (inhibitor) vs. normalized response using a variable slope was applied to fit the data and determine the IC50 values for inhibition of RORγ and cell viability.
# [2] = tested on: Nrf2 transcription factor (GST ARE luciferase reporter in AREc32 cells); assay: AREc32 luciferase reporter assay; assay type: cell-based, human; conditions: EC2×: concentration required to increase GST ARE luciferase reporter activity by 2-fold, 19 hours
# In short: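 AREc32 cells (MCF-7 carrying luciferase under eight rat GSTA2 ARE copies) treated with compound; luciferase measured by ONE-Glo luminescence. Signal normalised to DMSO wells as fold-induction, fitted by variable-slope log(agonist)-response regression, with EC2× interpolated from the curve.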
# [3] = tested on: IL-17A levels in primary human CD4+ T cells differentiated into Th17 cells; assay: IL-17 release from differentiated primary human T-cells (IL-17A HTRF); assay type: cell-based
# Procedure: C. IL-17 Release from Differentiated Primary Human T-Cells and Cell Viability Primary human cryopreserved CD4+ T Cells (Lonza, donor #0000402103) were plated in Lymphocyte Growth Medium-3 (LGM-3, Lonza) according to the manufacturer's recommendations, and allowed to recover for approximately 3 hours at 37° C. with 5% CO2 in a humidified atmosphere. […] Triplicate wells were plated for each test condition. DMSO (final concentration ≤0.1%) was used as the vehicle. Immediately after plating, CD4+ T cells were activated by adding Dynabeads Human T-Activator CD3/CD28 (Life Technologies; bead-to-cell ratio of 1:2.5) and differentiated into Th17 cells by adding a mixture of the following cytokines: transforming growth factor-β (TGF-β, 5 ng/mL), IL-6 (20 ng/mL), IL-23 (20 ng/mL), and […] (10 ng/mL). Undifferentiated control cells received only cytokine IL-2 (50 ng/mL). All human recombinant cytokines were purchased from R&D Systems. Following a 46-hour incubation at 37° C. with 5% CO2 in a humidified atmosphere, the plates were centrifuged for 3 minutes at 250×g, and half of the supernatant was transferred to a new plate to be used in the IL-17A assay (see below). Cell viability was assessed in the original plate using the CyQuant Direct Assay (Life Technologies). CyQuant values from test compound samples were normalized to those from DMSO-treated samples. The concentration of IL-17A in the supernatant was measured using the Homogeneous Time-Resolved Fluorescence (HTRF) assay (Cisbio Bioassays) according to the manufacturer's protocol. The assay was performed at room temperature in low volume, solid white 384-well plates (Greiner Bio-One). […] A non-linear regression analysis with log (inhibitor) vs. normalized response using a variable slope was applied to fit the data and determine the IC50 values for inhibition of IL-17A levels and cell viability.
# [4] = primary human CD4+ T cells, Th17 differentiation, 46-hour incubation, read-out: hIL17 IC50
Structure (SMILES),IC50 [1],"IC50 [3, 4]",HRF2 ARE 2× [2],"IC50 ([3]; Homo sapiens, CD4+ T, 46 h, read-out: hIL17 IC50 (nM))"
C[C@H]1C(=O)C(C#N)=C[C@@]2(C)c3nc(-c4ccncc4)nc(O)c3CC[C@H]12 [T17],> 2000 nM,–,839 nM,–
Cc1cc(-c2nc(-c3ccc(F)cc3)c3c(n2)[C@]2(C)CC(C(N)=O)C(=O)[C@H](C)[C@H]2CC3)ccn1 (stereo partly shown) [T185],> 2000 nM,–,>2000 nM,–
C[C@H]1C(=O)C(C#N)=C[C@@]2(C)c3nc(-c4ccnnc4)nc(-c4ccccc4F)c3CC[C@H]12 [T79],–,143 nM,109 nM,–
C[C@H]1C(=O)C(C#N)=C[C@@]2(C)c3nc(-c4ccnc5ccccc45)nc(OCC4CCC4)c3CC[C@H]12 [T95],–,–,430 nM,68 nM
C[C@H]1C(=O)C(C#N)=C[C@@]2(C)c3nc(-c4ccnc5ccccc45)nc(N(C)C)c3CC[C@H]12 [T99],–,189 nM,508 nM,–
C[C@H]1C(=O)C(C#N)=C[C@@]2(C)c3nc(-c4ccc(C5CC5)nc4)nc(-c4ccccc4F)c3CC[C@H]12 [T140],–,26 nM,451 nM,–
CCS(=O)(=O)Cc1cc(-c2nc(-c3ccccc3F)c3c(n2)[C@]2(C)C=C(C#N)C(=O)[C@H](C)[C@H]2CC3)ccn1 [T154],–,65 nM,469 nM,–
C[C@]1(CCCO)C(=O)C(C#N)=C[C@@]2(C)c3nc(-c4ccnc(C5CC5)c4)nc(-c4ccccc4F)c3CC[C@H]12 [T136],–,25 nM,518 nM,–
Cc1cc(-c2nc(-c3ccccc3F)c3c(n2)[C@]2(C)C=C(C#N)C(=O)[C@H](C)[C@H]2CC3)c2cc(F)ccc2n1 [T85],–,38 nM,307 nM,–
CC(C)c1nc(-c2ccnc3ccccc23)nc2c1CC[C@@H]1[C@@H](C)C(=O)C(C#N)=C[C@@]21C [T42],–,165 nM,513 nM,–
C[C@H]1C(=O)C(C#N)=C[C@@]2(C)c3nc(-c4cccc5ncccc45)nc(-c4ccccc4F)c3CC[C@H]12 [T84],–,36 nM,321 nM,–
C[C@H]1C(=O)C(C#N)=C[C@@]2(C)c3nc(-c4ccnc5c(F)cccc45)nc(-c4ccccc4F)c3CC[C@H]12 [T77],–,31 nM,264 nM,–
C[C@H]1C(=O)C(C#N)=C[C@@]2(C)c3nc(-c4ccnc5ccccc45)nc(NS(C)(=O)=O)c3CC[C@H]12 [T98],> 2000 nM,> 1000 nM,>2000 nM,–
C[C@H]1C(=O)C(C#N)=C[C@@]2(C)c3nc(-c4ccnc(CS(C)(=O)=O)c4)nc(-c4ccccc4F)c3CC[C@H]12 [T143],–,94 nM,538 nM,–
COc1nc(CCNC=O)nc2c1CC[C@@H]1[C@@H](C)C(=O)C(C#N)=C[C@@]21C [T11],> 2000 nM,–,2438 nM,–
Cc1cc(-c2nc(-c3ccccc3)c3c(n2)[C@]2(C)C=C(C#N)C(=O)[C@H](C)[C@H]2CC3)ccn1 [T43],–,39 nM,278 nM,–
Cc1cc(-c2nc(-c3ccccc3F)c3c(n2)[C@]2(C)C=C(C#N)C(=O)[C@H](C)[C@H]2CC3)c2ccccc2n1 [T69],–,20 nM,227 nM,–
C[C@H]1C(=O)C(C#N)=C[C@@]2(C)c3nc(-c4cc(CF)nc5ccccc45)nc(OC4CCCC4)c3CC[C@H]12 [T120],–,29 nM,334 nM,–
C[C@H]1C(=O)C(C#N)=C[C@@]2(C)c3nc(-c4ccnc5ccc(F)cc45)nc(-c4ccccc4F)c3CC[C@H]12 [T89],–,62 nM,274 nM,–
COc1nc(Nc2ccncc2)nc2c1CC[C@@H]1[C@@H](C)C(=O)C(C#N)=C[C@@]21C [T8],–,185 nM,534 nM,–
CCC[C@@]12C=C(C#N)C(=O)C[C@H]1CCc1c(-c3ccccc3F)nc(-c3ccnc(C4CC4)c3)nc12 [T167],–,106 nM,493 nM,–

# Further lines, with some results ahead:
IC50 [1],"IC50 [3, 4]",Structure (SMILES),HRF2 ARE 2× [2],"IC50 ([3]; Homo sapiens, CD4+ T, 46 h, read-out: hIL17 IC50 (nM))"
> 2000 nM,–,C[C@H]1C(=O)C(C#N)=C[C@@]2(C)c3nc(-c4ccnc(CCC(=O)O)c4)nc(-c4ccccc4F)c3CC[C@H]12 [T150],>2000 nM,–
–,85 nM,C[C@H]1C(=O)C(C#N)=C[C@@]2(C)c3nc(-c4ncnc5ccccc45)nc(OC4CCC4)c3CC[C@H]12 [T112],559 nM,–
–,58 nM,CC(=O)OCc1cc(-c2nc(-c3ccccc3F)c3c(n2)[C@]2(C)C=C(C#N)C(=O)[C@H](C)[C@H]2CC3)c2ccccc2n1 [T117],232 nM,–
–,31 nM,CC1(C)C(=O)C(C#N)=C[C@@]2(C)c3nc(-c4cc(CF)nc5ccccc45)nc(-c4ccccc4F)c3CC[C@H]12 [T122],402 nM,–
–,72 nM,C[C@H]1C(=O)C(C#N)=C[C@@]2(C)c3nc(-c4ccnc(CCS(C)(=O)=O)c4)nc(-c4ccccc4F)c3CC[C@H]12 [T144],299 nM,–
–,89 nM,Cc1cc(-c2nc(-c3ccccc3F)c3c(n2)[C@]2(C)C=C(C#N)C(=O)[C@H](C)[C@H]2CC3)ncn1 [T78],629 nM,–
–,35 nM,C[C@H]1C(=O)C(C#N)=C[C@@]2(C)c3nc(-c4ccnc5ccccc45)nc(-c4ccc(F)cc4F)c3CC[C@H]12 [T52],272 nM,–
–,29 nM,C[C@H]1C(=O)C(C#N)=C[C@@]2(C)c3nc(-c4ccnc(-c5ccccc5)c4)nc(-c4ccccc4F)c3CC[C@H]12 [T65],463 nM,–
–,35 nM,C[C@H]1C(=O)C(C#N)=C[C@@]2(C)c3nc(-c4ccnc5ccccc45)nc(OC4CCCC4)c3CC[C@H]12 [T97],330 nM,–
–,22 nM,CCC[C@@]1(C)C(=O)C(C#N)=C[C@@]2(C)c3nc(-c4ccnc5ccccc45)nc(-c4ccccc4F)c3CC[C@H]12 [T124],220 nM,–
–,46 nM,C[C@H]1C(=O)C(C#N)=C[C@@]2(C)c3nc(-c4ccnc(CCC(=O)N(C)C)c4)nc(-c4ccccc4F)c3CC[C@H]12 [T152],323 nM,–
–,31 nM,C=C(C)C[C@@]1(C)C(=O)C(C#N)=C[C@@]2(C)c3nc(-c4ccnc5ccccc45)nc(-c4ccccc4F)c3CC[C@H]12 [T166],878 nM,–
